Measured values reported in ChEMBL document CHEMBL5236626, “Synthesis and pharmacokinetic properties of novel cPLA2α inhibitors with 1-(carboxyalkylpyrrolyl)-3-aryloxypropan-2-one structure” (Bioorg Med Chem, 2023).
Values after ≈ are worked out from the molar mass of the structure shown.

Tests used:
[1] = Metabolic stability in rat liver S9 fraction assessed as parent compound remaining at 20 uM incubated for 30 mins in presence of NADPH by HPLC-MS analysis; assay type: ADME, subcellular; settings: read-out: Stability
[2] = Metabolic stability in rat liver S9 fraction assessed as parent compound remaining at 5 uM incubated for 30 mins in presence of UDPGA by HPLC-MS analysis; assay type: ADME, subcellular; settings: read-out: Stability
[3] = Inhibition of porcine cytosolic phospholipase A2 alpha using SAPC and 2-dioleoyl-sn-glycerol as substrate incubated for 60 mins by HPLC-UV analysis; design: species or system Sus scrofa
[4] = Partition coefficient,logP of compound by reversed-phase HPLC analysis; assay type: physicochemical; settings: octanol/water
[5] = Permeability across apical to basolateral side in human Caco-2 cells at 10 uM incubated for 2 hrs by HPLC-MS analysis; assay type: ADME, cell-based; settings: caco-2, 2 h
Sus scrofa = species on record: Sus scrofa; assay: Inhibition of porcine cytosolic phospholipase A2 alpha using SAPC and 2-dioleoyl-sn-glycerol as substrate at 10 uM incubated for 60 mins by HPLC-UV analysis
[6] = Kinetic solubility of compound in PBS at pH 7.4 incubated for 24 hrs by HPLC-UV analysis; assay type: physicochemical; settings: read-out: Kinetic_solubility
[7] = Drug concentration in C57Bl/6 mouse plasma at 30 mg/kg,po observed after 2 hrs by HPLC-MS analysis; assay type: ADME, organism-based
[8] = Thermodynamic solubility of the compound in PBS at pH 7.4 incubated for 20 hrs by HPLC-UV analysis; assay type: physicochemical; settings: read-out: Therm_solubility
[9] = Apparent permeability across apical to basolateral side in human Caco-2 cells at 10 uM incubated for 2 hrs by HPLC-MS analysis; assay type: ADME, cell-based

Compound | remaining at 0.5 h, 20 µM [1] | remaining at 0.5 h, 5 µM [2] | IC50 [3] | logP [4] | other results
COc1cccc2c1C(=O)c1c(O)c3c(c(O)c1C2=O)C[C@@](O)(C(C)=O)C[C@@H]3O[C@H]1C[C@H](N)[C@H](O)[C@H](C)O1 [DAUNORUBICIN] | 28% | 32% |  |  | 
CC(C)C(=O)c1cn(CC(=O)COc2ccc(Oc3ccc(C(F)(F)F)cc3)cc2)cc1CCC(=O)O | < 5% | > 90% | 82 nM | 4 | 
CCCCCCCCc1ccc(OCC(=O)Cn2cc(CCC(=O)O)c(-c3nc(C)no3)c2)cc1 | 34% | > 90% | 1 nM | 5.9 | 
CCCCCCCCc1ccc(OCC(=O)C(C)n2cc(CCC(=O)O)c(-c3nc(C)no3)c2)cc1 (stereo not drawn) | 43% | > 90% | 1 nM | 6.1 | 
CCCCCCCCCCOc1ccc(OCC(=O)COc2ccc(C(=O)O)cc2)cc1 |  |  | 6.5 nM |  | 
CCCCCCCCc1ccc(OCC(=O)Cn2cc(CCCC(=O)O)c(C(=O)C(C)C)c2)cc1 | 25% | > 90% | 450 nM |  | 
Cc1noc(-c2cn(CC(=O)C(C)Oc3ccc(Oc4ccc(C(F)(F)F)cc4)cc3)cc2CCC(=O)O)n1 (stereo not drawn) | 30% | > 90% | 16 nM | 4.1 | permeability [5]: Permeable
CCCCCCCCc1ccc(OCC(=O)Cn2cc(C(=O)C(C)C)c3cc(C(=O)O)ccc32)cc1 |  |  | 10 nM |  | 
Cc1noc(-c2cn(CC(=O)C(C)Oc3ccc(Oc4ccc(F)cc4)cc3)cc2CCC(=O)O)n1 (stereo not drawn) | 15% | > 90% | 32 nM | 3.3 | 
CCCCCCCCc1ccc(OCC(=O)Cn2c(C)c(CCC(=O)O)c(C(=O)C(C)C)c2C)cc1 | 39% | > 90% | > 10000 nM |  | inhibition (Sus scrofa): 45%
CC(C)C(=O)c1cn(CC(=O)COc2ccc(-c3ccc(C(F)(F)F)cc3)cc2)cc1CCC(=O)O | 34% | > 90% | 170 nM | 4 | 
CCCCCCCCc1ccc(OC(C)C(=O)Cn2cc(CCC(=O)O)c(-c3nc(C)no3)c2)cc1 (stereo not drawn) | 62% | > 90% | 13 nM | 6.5 | solubility kinetic at 24 h [6]: 10 µg/mL (≈ 20.2 µM)
CCCCCCCCc1ccc(OCC(=O)Cn2cc(CCC(=O)O)c(C(=O)C(C)C)c2)cc1 | 54% | > 90% | 53 nM | 6.3 | solubility kinetic at 24 h [6]: 174 µg/mL (≈ 371 µM)
CCCCCCCCc1ccc(OCC(O)Cn2cc(CCC(=O)O)c(C(=O)C(C)C)c2)cc1 (stereo not drawn) |  |  |  |  | concentration at 2 h [7]: 50 ng/mL; permeability [5]: Permeable
CCCCCCCCc1ccc(OCC(=O)Cn2cc(C(=O)C(C)C)cc2CCC(=O)O)cc1 | 60% | > 90% | 460 nM |  | concentration at 2 h [7]: 220 ng/mL; permeability [5]: Impermeable; solubility kinetic at 24 h [6]: ≥ 250 µg/mL; solubility thermodynamic at 20 h [8]: 394 µg/mL (≈ 839 µM)
CC(C)C(=O)c1cn(CC(=O)COc2ccc3c(ccn3-c3ccc(F)cc3)c2)cc1CCC(=O)O | < 5% | > 90% | 310 nM | 3.3 | 
CCCCCCCCc1ccc(OCC(=O)Cn2cc(CC(=O)O)c(C(=O)C(C)C)c2)cc1 | 25% | > 90% | 40 nM |  | 
COc1ccc2c(c1)c(CC(=O)O)c(C)n2C(=O)c1ccc(Cl)cc1 [INDOMETHACIN] |  |  |  |  | Papp A→B at 2 h, 10 µM [9]: 18 ×10⁻⁶ cm/s
Cc1noc(-c2cn(CC(=O)C(C)Oc3ccc(Oc4ccc(Cl)cc4)cc3)cc2CCC(=O)O)n1 (stereo not drawn) | 21% | > 90% | 38 nM | 3.9 | 
CCCCCCCCc1ccc(OCC(=O)Cn2cc(-c3nc(C)no3)c3cc(C(=O)O)ccc32)cc1 | 30% | < 5% | 15 nM |  | 
CC(C)C(=O)c1cn(CC(=O)COc2ccc(C34CC5CC(CC(C5)C3)C4)cc2)cc1CCC(=O)O | 20% | > 90% | 51 nM | 5.6 | 
CCCCCCCCc1ccc(OCC(=O)Cn2cc(C(=O)C(C)C)cc2CCCC(=O)O)cc1 | 59% | > 90% | 650 nM |  | 
CC(C)C(=O)c1cn(CC(=O)COc2ccc(Oc3ccccc3)cc2)c2ccc(C(=O)O)cc12 |  |  | 12 nM |  | 
